For one assay, the system named is mixed rat glia culture. Briefly: Neurogenesis enhancing activity in mixed rat glia culture (β III-tubulin positive cell area). The format is cell-based. The settings on record: compound 1 μM; serum-free medium, five days differentiation; β III-tubulin positive cell area by image analysis versus control without compound. The text has this:
Neurogenesis Enhancing Activity in Mixed Rat Glia Culture
Neonatal of SD rats were purchased from Japan Charles River Co, Ltd. A […] nylon cell strainer was purchased from Beckton-Dickinson. DMEM/F12 culture medium, antibiotic, and N2 additive were purchased from Life Technology Corp. Anti β III-tubulin antibody was purchased from Sigma Corp. DAKO EnVision+/HRP kit was purchased from Dako Japan Corp. As for other reagents, commercially available guaranteed reagents were used.
Rat mixed glia culture was prepared from the cerebrums of 2 day old neonatal SD rat. The neonates were anaesthetised with ice cooling, were decapitated, and their brains were quickly removed. The meninges were carefully removed, and the cerebral cortex was separated therefrom. The cerebral cortex was passed through 40 micron nylon mesh, and it was physically dissociated. Cell suspension was then layered in a cell dispersion liquid on serum, and the cells were fractionated by non-continuous density gradient centrifugation. The precipitate was washed twice with growth culture medium (10% FBS and antibiotic. added to DMEM/F12), and it was dispersed. Mixed glia culture was seeded and inoculated onto a collagen coated 96 well multiplate with 1×10^5 cells per well, and was cultured for five days.
After culturing for five days, mixed glia culture was used in a differentiation assay. Growth culture medium was substituted with a serum-free medium (N2 supplememt and antibiotic added to DMEM/F12), and test compound was added simultaneously. After differentiation for five days, culture was fixed with 4% paraformaldehyde, and was immunostained with the mouse anti β III-tubulin monoclonal antibody and the DAKO EnVison+/HRP kit.
β III-tubulin positive cell area were quantified by image analysis, and was compared to when compound (I) was added (1 μM) and when it was not added (control).

In assay [1] the test system is human neuroblastoma SK-N-SH cells. Nature of the assay: Cytoprotection activity against PI-3 kinase inhibitor LY-294002 in human neuroblastoma SK-N-SH cells. The settings on record: test compound 1.0 μM with LY-294002 30 μM, Alamarblue reduction one day after start, (A−B)/(C−B)×100. It is filed as cell-based. How it is done:
Cytoprotection activity against a PI-3 kinase inhibitor LY-294002 in human neuroblastoma SK-N-SH cells.
Human neuroblastoma SK-N-SH cells were purchased from American Type Cell Culture (ATCC). DMEM/F-12 culture medium and potassium/magnesium-free phosphate buffer saline (PBS(−)) were purchased from Nikken Biomedical Co., Ltd., N2 additives and EDTA solution were purchased from GIBCO BRL Company, fetal bovine serum (FCS) and a mixed solution of penicillin (5000 U/ml) and streptomycin (5 mg/ml) were purchased from BioWhittaker Inc., Alamarblue™ reagent was purchased from Wako Pure Chemical Industries Ltd., culture flasks were purchased from Falcon Company, collagen-coated 96-well multi-plates were purchased from Iwaki Glass Co., Ltd., and LY-294002 was purchased from Alexis Biochemicals, respectively. As for other reagents, commercially available guaranteed reagents were used.
A DMEM/F-12 culture medium which contains 5% FCS, 0.5% N2, 10 mM HEPES, and a 1% mixed solution of penicillin (5000 U/ml) and streptomycin (5 mg/ml) was used to subculture SK-N-SH cells in a carbon dioxide incubator under a mixed gas atmosphere consisting of 10% carbon dioxide/90% air. After being cultivated to a sub-confluent stage, the cells were detached with a PBS(−) solution containing 2.5 mM EDTA and seeded onto collagen-coated 96-well multi-plates in the proportion of 10^4/100 μL well. After cultivation for 24 hours, the cultured cells were used in a cytotoxic test.
[…] of the culture medium of the SK-N-SH cells that were cultured as described above on the collagen-coated 96-well multi-plates was removed, and 40 μL each of LY-294002 having a final concentration of 30 μM and a test compound having a final concentration that was adjusted to be 1.0 μM were simultaneously added to initiate the cytotoxicity test. Note that each test compound used was diluted to a concentration of 10 mM with dimethyl sulfoxide, and the LY-294002 used was diluted to a concentration of 100 mM with dimethyl sulfoxide.
The survival activity of neural cells that were still living one day after the initiation of the cytotoxicity test was estimated by the reductive activity of Alamarblue™ reagent as an index. 20 μL of the culture medium was removed, 20 μL of Alamarblue™ reagent was added, and the amount of Alamarblue™ reagent reduced for 4 hours incubation was calorimetrically measured with a plate reader (WAKO SPECTRAMAX 250 Microplate Reader) (measurement wave length 570 nm, reference wave length 600 nm).
Cytoprotection activity was calculated by means of the following equation. Cytoprotection activity a test compound=(A−B)/(C−B)×100 (%) • A: The survival activity of a group consisting of a test compound and LY-294002 • B: The survival activity of a group consisting of LY-294002 • C: The survival activity of a control group (Results)
At least 4 wells for every 1 dose of a test compound was used to determine the cytoprotection activity of a test compound.
Background: The colour change of resazurin is a common sign of viable cells or microbes.

As to `COc1ccc(C2CCN(c3c(C)c(C)c4c(c3C)[C@@H](c3ccc(C)cc3)C(C)(C)O4)CC2)cc1OC` [Example 32, (3R)-4-(3,4-dimethoxyphenyl)-1-(2,2,4,6,7-pentamethyl-3-(4-methylphenyl)-2,3-dihydro-1-benzofuran-5-yl)piperidine], the “Differentiation/nacent promotion activity (%/control)” value in the assay on mixed rat glia culture amounted to 371 %/control. The “Cell protection activity (%)” value in assay [1] was determined as 35.6%. As to `COc1ccc(N2CCN(c3c(C)c(C)c4c(c3C)C(O)(c3ccc(C)cc3)C(C)(C)O4)CC2)cc1` (stereo not shown) [Example 33, 1-(3-hydroxy-2,2,4,6,7-pentamethyl-3-(4-methylphenyl)-2,3-dihydro-1-benzofuran-5-yl)-4-(4-methoxyphenyl)piperazine], the “Differentiation/nacent promotion activity (%/control)” value in the assay on mixed rat glia culture amounted to 448 %/control. Also, the “Cell protection activity (%)” value in assay [1] is 24.9%. Regarding `COc1ccc(C2CCN(c3c(C)c(C)c4c(c3C)C(c3ccc(C)cc3)C(C)(C)O4)CC2)cc1OC` (stereo not shown) [Example 79, 4-(3,4-dimethoxyphenyl)-1-(3-(4-methylphenyl)-2,2,4,6,7-pentamethyl-2,3-dihydro-1-benzofuran-5-yl)piperidine], the “Cell protection activity (%)” value in assay [1] is recorded as 31.3%. For the compound `COc1ccc(C2CCN(c3c(C)c(C)c4c(c3C)C(N3CCc5ccccc5CC3)C(C)(C)O4)CC2)cc1OC` (stereo not shown) [Example 92, 3-(5-(4-[3,4-dimethoxyphenyl]piperidino)-2,2,4,6,7-pentamethyl-2,3-dihydro-1-benzofuran-3-yl)-2,3,4,5-tetrahydro-1H-3-benzoazepin], the “Cell protection activity (%)” value in assay [1] stood at 29.6%. `COc1ccc(N2CCN(c3c(C)c(C)c4c(c3C)C(Nc3ccccc3)C(C)(C)O4)CC2)cc1` (stereo not shown) [Example 58, N-phenyl-5-(4-(4-methoxyphenyl)piperazin-1-yl)-2,2,4,6,7-pentamethyl-2,3-dihydro-1-benzofuran-3-amine]: the “Cell protection activity (%)” value in assay [1] turned out to be 39.2%.

`COc1ccc(N2CCN(c3c(C)c(C)c4c(c3C)C(c3ccc(C)cc3)C(C)(C)O4)CC2)cc1` (stereo not shown) [Example 46, 1-(2,2,4,6,7-pentamethyl-3-(4-methylphenyl)-2,3-dihydro-1-benzofuran-5-yl)-4-(4-methoxyphenyl)piperazine]: the “Differentiation/nacent promotion activity (%/control)” value in the assay with mixed rat glia culture turned out to be 842 %/control. Further, the “Cell protection activity (%)” value in assay [1] amounted to 39.5%.

As to `COc1ccc(N2CCN(c3c(C)c(C)c4c(c3C)C(N3CCCCC3)C(C)(C)O4)CC2)cc1` (stereo not shown) [Example 59, 4-(4-methoxyphenyl)-1-(2,2,4,6,7-pentamethyl-3-piperidino-2,3-dihydro-1-benzofuran-5-yl)piperazine], the “Cell protection activity (%)” value in assay [1] is listed as 23.9%.
